This note sets out measurements from PubChem BioAssay AID1159558 (GlaxoSmithKline (GSK), 2015).

Activity calls are given as the source filed them.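 How the source made its calls: active means IC50 against T. cruzi CYP51 below a set limit; inactive means the rest.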

What is called IC50 is the midpoint of a concentration-inhibition curve.

In the assay the target is Sterol 14-alpha demethylase (Trypanosoma cruzi (strain CL Brener)) (UniProt Q7Z1V1). The experiment in a line: TcCYP51 inhibitors, dose response, mechanism study for T. cruzi antiparasitic project, biochemical, recombinant enzyme (AID 1159558).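 Further: enzyme in bacterial membranes with Anopheles gambiae CYP reductase and cytochrome b5 partners.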 To be noted: recombinant T. cruzi CYP51, BOMCC fluorescence.
Sterol 14-alpha demethylase (Trypanosoma cruzi (strain CL Brener)), sequence (Q7Z1V1 whole entry, looked up): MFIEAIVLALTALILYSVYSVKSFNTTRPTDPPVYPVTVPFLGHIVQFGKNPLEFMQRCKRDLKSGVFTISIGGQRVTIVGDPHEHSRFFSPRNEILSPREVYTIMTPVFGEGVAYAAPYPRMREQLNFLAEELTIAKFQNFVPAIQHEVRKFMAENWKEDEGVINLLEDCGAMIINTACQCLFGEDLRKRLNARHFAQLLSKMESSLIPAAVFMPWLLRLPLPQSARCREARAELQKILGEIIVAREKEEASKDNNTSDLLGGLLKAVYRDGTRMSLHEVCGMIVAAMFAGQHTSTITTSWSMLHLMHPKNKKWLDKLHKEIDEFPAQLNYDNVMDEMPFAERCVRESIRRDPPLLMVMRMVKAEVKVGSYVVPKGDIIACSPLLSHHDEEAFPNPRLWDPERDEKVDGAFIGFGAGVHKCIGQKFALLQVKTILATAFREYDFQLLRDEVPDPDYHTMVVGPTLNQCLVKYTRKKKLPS
In the case of `Cc1cc(Br)cc(C(=O)c2c(C(C)C)c(=O)[nH]c(=O)n2Cc2ccnc(N)c2)c1`, the IC50 is 0.016 µM.

As for `Cc1cc(N(C)C)nc(Nc2ccccc2C)n1`, the IC50 was > 100 µM (inactive).

As for `CN(C)Cc1ccc(N2CCC(NS(=O)(=O)c3ccc(Cl)cc3)CC2)cc1`, the IC50 is > 100 µM (inactive).

As to `O=C(NCCc1cccnc1)c1ccc(-c2ccccc2F)o1`, the half-inhibitory concentration (IC50) was 0.063 µM.

Consider `O=C(Nc1ccc(C(=O)N2CCCC2c2ccc3c(c2)OCCCO3)cc1)c1ccco1` (stereo not given), for which the IC50 was 63 µM.

As to `Nc1nc(-c2ccccc2)cc(-c2nc3ncccc3[nH]2)n1`, the IC50 is > 100 µM (inactive).

Turning to `CC(C)(C)Nc1nc(-c2ccccn2)nc2ccccc12`, the IC50 was > 100 µM (inactive).

As for `OCC1CCCCN1c1cc(-c2ccccn2)nc(Nc2ccccc2)n1` (stereo not given), the half-inhibitory concentration (IC50) was 79 µM.

With `COc1ccc(C2C3CCCCC3(O)CCN2CC(=O)Nc2ccc(Cl)cc2Cl)cc1` (stereo not given), the half-maximal inhibitory concentration (IC50) is 10 µM.

Regarding `O=c1[nH]c(C=Cc2cccc(OCCOc3ccccc3)c2)nc(O)c1[N+](=O)[O-]`, the IC50 is > 100 µM (inactive).

For `O=[N+]([O-])c1ccc(-c2nnn(-c3cccnc3)n2)o1`, the IC50 was 4 µM.

Turning to `O=C(CN1CCN(S(=O)(=O)c2cccc([N+](=O)[O-])c2)CC1)Nc1ccc(Oc2ccccc2)cc1`, the IC50 is 2.5 µM.

`CC(C)c1sc(Cl)nc1C(=O)NCCc1nc(C(=O)Nc2ccc3c(c2)OCO3)cs1`: the IC50 was 7.9 µM.

As for `O=C1OCc2ccc(Nc3nccc(-c4cnn5ncccc45)n3)cc21`, the IC50 is > 100 µM (inactive).

Consider `Cn1cc(CN2CCN(c3ccc4c(c3)CCN(C(=O)[C@H]3C[C@@H]3c3ccccc3)CC4)CC2)cn1`, for which the IC50 was 16 µM.

On to `Cc1cc(C#N)c([N+](=O)[O-])cc1Br`, for which the IC50 is 7.9 µM.

In the case of `CC(Cn1ccnc1)NC(=O)COc1ccc(Cl)c(Cl)c1` (stereo not given), the IC50 was 0.063 µM.

As for `CNc1nc(C)nc(N2CCc3cc(C(=O)NCc4ccc(-c5nccn5C)cc4Cl)ccc32)n1`, the IC50 was 1.6 µM.

On to `O=C1CN(C2CCCc3c(OCc4ccncc4)cccc32)C(=O)N1C1CCCCC1` (stereo not given), for which the 50% inhibitory concentration (IC50) is 0.02 µM.

Consider `O=C(Nc1cccc(Cl)c1)N1CCCCC1c1cccnc1` (stereo not given), for which the IC50 is 0.02 µM.

For the molecule `COc1ccc2nccc(NC(=O)C3(OC)CCN(CC(O)c4ccc5c(c4)OCCO5)CC3)c2n1` (stereo not given), the IC50 was 1 µM.

As for `CC(=O)Nc1ccc(-c2csc(NC(=O)c3ccc([N+](=O)[O-])s3)n2)cc1`, the IC50 was 6.3 µM.

Regarding `CC(=O)Nc1ccc(-c2ccnc(Nc3cccc(C#N)c3)n2)cc1`, the concentration for half-maximal inhibition (IC50) was 25 µM.

On to `O=c1[nH]cnc2c([C@@H]3O[C@H](CO)[C@@H](O)[C@H]3O)[nH]nc12`, for which the IC50 was > 100 µM (inactive).

As to `Cc1ccc2c(c1)-c1onc(C(=O)N3CCCCC3c3cccnc3)c1CO2` (stereo not given), the half-inhibitory concentration (IC50) is 0.1 µM.

For the molecule `CCN(CC)S(=O)(=O)c1ccc(C(=O)Nc2cc(C)nn2-c2nc(C)c(C)c(=O)[nH]2)cc1`, the IC50 is > 100 µM (inactive).

With `O=C1CN(C(=O)c2cccc(Nc3ncc(-c4ccc5c(c4)OCO5)cn3)c2)CCN1`, the 50% inhibitory concentration (IC50) was 25 µM.

On to `COc1cc(NC(=O)Nc2cccc(CNC(=O)OC3CCCCC3)c2)ccc1-c1cnco1`, for which the IC50 was 25 µM.

For `O=C(CN(Cc1ccccn1)Cc1ccccn1)NCc1ccc(-c2csnn2)cc1`, the half-maximal inhibitory concentration (IC50) is 40 µM.

As for `CC(C)Oc1ccc(C(=O)Nc2ccc(N3CCOCC3)c(Cl)c2)cc1`, the IC50 was > 100 µM (inactive).

In the case of `CN(Cc1nc2ccc(C(=O)NCC3CCCCC3)cc2[nH]1)C1CCCc2cccnc21` (stereo not given), the IC50 was 40 µM.

`CCCCn1c(=O)c2c(N)onc2n(CCCC)c1=O`: the IC50 is 79 µM.

`COc1ccc(S(=O)(=O)NC(C)C)cc1Nc1ncc(-c2cccc(F)c2)cn1`: the IC50 is > 100 µM (inactive).

In the case of `Cc1cc(NC(=O)c2ccc([N+](=O)[O-])s2)ccc1Br`, the concentration for half-maximal inhibition (IC50) was 10 µM.

For the molecule `CN(C)S(=O)(=O)c1ccc(Cl)c(C(=O)Nc2nc(-c3ccccn3)cs2)c1`, the 50% inhibitory concentration (IC50) is 32 µM.

Consider `COc1ncc(-c2ccc3nccc(-c4ccncc4)c3c2)cc1NS(=O)(=O)C1CC1`, for which the IC50 was 7.9 µM.

Consider `CCOc1ccccc1C(=O)Nc1nnc(-c2ccc3c(c2)OCO3)s1`, for which the IC50 was > 100 µM (inactive).

Consider `Cc1ccccc1NS(=O)(=O)c1ccc2[nH]cc(C(=O)NC3CCCC(C)C3C)c(=O)c2c1` (stereo not given), for which the half-maximal inhibitory concentration (IC50) was 5 µM.

For `CC(=O)Nc1ccc(-c2cnc(N)c(-c3nc4ccc(F)cc4[nH]3)c2)cc1`, the IC50 was 63 µM.

Consider `CC(C)(C)CC(=O)NCCc1csc(-c2ccc(F)cc2)n1`, for which the half-maximal inhibitory concentration (IC50) was 20 µM.

Take `COc1cccc(-c2c(C)nn(-c3nc(N)nc(-c4ccccn4)n3)c2N)c1`: the IC50 was > 100 µM (inactive).

With `CCc1cccc(CC)c1-n1c(SCC(=O)NC(=O)NCc2ccco2)nnc1-c1cccnc1`, the concentration for half-maximal inhibition (IC50) is 1 µM.

Turning to `Cc1c(C#N)c([N+](=O)[O-])nn1Cc1cccc(Cl)c1Cl`, the IC50 was > 100 µM (inactive).

Consider `CCCc1cc(N)nc(-c2cc(CCC)cc(N)n2)c1`, for which the IC50 is > 100 µM (inactive).

With `Fc1ccc(OC2CC(NCc3cccc4cn[nH]c34)C2)cc1C(F)(F)F` (stereo not given), the half-inhibitory concentration (IC50) was 0.13 µM.

Turning to `O=C(COc1ccccc1)Nc1ccccc1C(=O)Nc1nccs1`, the IC50 was > 100 µM (inactive).

In the case of `O=C(c1cc2cc(Cl)ccc2[nH]1)N1CCCCC1c1cccnc1` (stereo not given), the IC50 was 0.063 µM.

For the molecule `CCCC(=O)N(Cc1ccccn1)c1nc2ccccc2s1`, the IC50 is 0.05 µM.

As for `O=C(NCCc1ccccn1)C(c1cn[nH]c1)N1CCN(c2ccc(Cl)c(Cl)c2)CC1` (stereo not given), the half-maximal inhibitory concentration (IC50) is 0.13 µM.

Consider `CNC(=O)C1Cc2ccccc2N1C(=O)Cc1ccc(F)cc1` (stereo not given), for which the IC50 was > 100 µM (inactive).

For the molecule `CCOc1cc(NCCCN2CCN(C)CC2)c2ncccc2c1`, the IC50 is > 100 µM (inactive).

On to `COc1cccc(Nc2cc(C)nc(-c3ccccn3)n2)c1`, for which the IC50 was > 100 µM (inactive).

For the molecule `CC1CN(Cc2ccc(C#N)cc2)CCN1c1ccc(NC(=O)c2ccccc2F)cc1` (stereo not given), the half-maximal inhibitory concentration (IC50) is 32 µM.

With `N#Cc1cc(-c2ccnc(Nc3cccc(CN4CCOCC4)c3)n2)ccc1NCCN`, the IC50 is 32 µM.

For the molecule `COc1ccc(CN2C(=O)C(O)(CC(=O)c3ccncc3)c3cc(Br)ccc32)cc1OC` (stereo not given), the IC50 was 0.5 µM.

Take `COc1cc(OC)cc(C(NS(=O)(=O)c2ccc(Cl)c(C(F)(F)F)c2)c2nccn2C)c1` (stereo not given): the IC50 was 32 µM.

On to `O=C(Nc1ccc(Br)cn1)c1ccc(Cn2cnc([N+](=O)[O-])n2)cc1`, for which the IC50 is > 100 µM (inactive).

`Cc1ccc(NC(=O)c2ccnc(N3CCCC3)c2)cc1-c1ccsc1C(N)=O`: the IC50 is 1.3 µM.

In the case of `C[C@@H](Oc1cc(-n2cnc3ccc(CC(O)CO)cc32)sc1C(N)=O)c1ccccc1Cl` (stereo not given in full), the IC50 is 25 µM.

Regarding `Cc1c([N+](=O)[O-])c(C(=O)Nc2sc3c(c2C#N)CCC(C)C3)nn1C` (stereo not given), the IC50 was > 100 µM (inactive).

For `N#Cc1ccc(C(=O)Nc2cccc(-c3cccc(CN4CCC(O)CC4)c3)c2)cc1`, the IC50 is 25 µM.

For `Cc1ccc(Nc2nc(N)nc(CNC(c3nc4ccccc4[nH]3)C(C)C)n2)cc1` (stereo not given), the IC50 was 50 µM.

As to `O=C(CSc1ccc(F)cc1)N[C@@H](Cc1cnc[nH]1)C(=O)NCCc1ccccc1`, the IC50 was 0.079 µM.

Consider `NCc1ccc2c(Cl)cc(Cl)c(O)c2n1`, for which the IC50 is 40 µM.

As to `Nc1ncnc2c1ncn2[C@@H]1O[C@H](CO)C[C@H]1O`, the IC50 is > 100 µM (inactive).

On to `CCCCNc1nccc(-c2c(-c3ccc(F)cc3)nn3c(N4CCOCC4)cccc23)n1`, for which the IC50 was > 100 µM (inactive).

On to `CN(C)c1ncc(-c2cncn2CCOc2ccc(Cl)cc2)cn1`, for which the IC50 is 0.05 µM.

Consider `O=C(N1CCc2ccccc2CC1)C1(C(=O)N2CCC(n3c(=O)[nH]c4ncccc43)CC2)CC1`, for which the half-inhibitory concentration (IC50) is 0.32 µM.

On to `Cc1cc(N2CCc3ccccc3C2)nc(Nc2ccc(S(=O)(=O)N3CCOCC3)cc2)n1`, for which the IC50 was > 100 µM (inactive).

Take `CNc1cncc(C2CCCN2C(=O)Cc2coc3cc(C)ccc23)n1` (stereo not given): the half-maximal inhibitory concentration (IC50) was 0.025 µM.

`CCc1cccc(CC)c1-n1c(SCC(=O)N2CC(=O)Nc3ccccc32)nnc1-c1cccnc1`: the IC50 is 3.2 µM.

As for `CC(C)(C)C(Cn1ccnc1)NC(=O)c1ccc2nc(C3CC3)oc2c1` (stereo not given), the IC50 was 0.1 µM.

For `CS(=O)(=O)N1CCC(Nc2ncc(Br)c(Nc3cccc(F)c3C(N)=O)n2)CC1`, the IC50 was > 100 µM (inactive).

With `Cc1[nH]n2c(=O)c3c(nc2c1-c1ccc(F)cc1)CCCC3`, the IC50 is > 100 µM (inactive).

For the molecule `COc1ccc(-c2cnc(NC(=O)c3ccc(F)cc3)n2C)cc1`, the IC50 was 10 µM.

On to `COc1ccc2ncc(=O)n(CCN3CCOC(CNCc4ccc(C(F)(F)F)cc4F)C3)c2n1` (stereo not given), for which the half-inhibitory concentration (IC50) was 10 µM.

Turning to `O=[N+]([O-])c1ccc(-c2nnn(-c3ccc(Cl)cc3)n2)o1`, the IC50 was > 100 µM (inactive).

Consider `Nc1nc(-c2ccccn2)nc(N)c1Cc1c(F)cccc1Cl`, for which the IC50 was > 100 µM (inactive).

For `COc1ccc(-c2cc(C)no2)cc1S(=O)(=O)Nc1ccc(C)c(C)c1`, the IC50 was 16 µM.

On to `CCN(Cc1ccncc1)Cc1ccc(NC(=O)c2cc(-c3ccc(F)cc3)n[nH]2)cc1`, for which the half-maximal inhibitory concentration (IC50) was 0.079 µM.

For the molecule `CNC(=O)Oc1ccc(C(=O)NCc2ccccc2)cc1OC(=O)NC`, the IC50 was > 100 µM (inactive).

Take `O=C(C1CCCCC1)N1CCN(c2nnc(-c3ccccc3)c3ccccc23)CC1`: the IC50 is > 100 µM (inactive).

Take `O=C1NCCn2ccc(Nc3nc(NC4CCC(O)CC4)ncc3Cl)c21` (stereo not given): the IC50 is > 100 µM (inactive).

As for `COc1ccc(NS(=O)(=O)c2cc(NC(=O)Cc3ccc(C)cc3)ccc2N2CCOCC2)cc1`, the IC50 was > 100 µM (inactive).

Consider `O=C(CN(Cc1ccccn1)Cc1ccccn1)NC1Cc2ccccc2C1`, for which the IC50 was 79 µM.

For the molecule `CC(C)(C)c1cc(NC2CC2)nc(-c2ccccn2)n1`, the IC50 was > 100 µM (inactive).

As to `Cc1cccnc1NC(=O)c1cccc(OCc2c(C)noc2C)c1`, the IC50 was 50 µM.

With `CC(=O)NC1(c2ccccc2)CCN(CC(=O)Nc2ccccc2-c2ccccc2)CC1`, the IC50 is 50 µM.

Turning to `O=C(NCc1ccc(Cl)cc1)C1CN(C(=O)c2ccc(F)cc2)CCS1` (stereo not given), the 50% inhibitory concentration (IC50) is 13 µM.

For the molecule `COc1ccc(OC)c2c(=O)c(Cc3ccccc3)c(C)[nH]c12`, the IC50 was > 100 µM (inactive).
